Source: patent US20240246964A1 (Arbutus Biopharma Corporation, priority 2021, published 2024)

Columns and labels:
[1] = target: human PD-L1 (Homo sapiens (Human), UniProt Q9NZQ7); experiment: T cell activation luciferase reporter cell culture system (T Cell Activation Assay); assay type: cell-based; details: luciferase reporter assay; PD-L1 aAPC/CHO-K1 cells with PD-1 effector Jurkat T cells
[2] = target: PD-L1 His protein / PD-1 Fc protein (Homo sapiens (Human), UniProt Q9NZQ7); experiment: HTRF Assay (PD-1/PD-L1 interaction); assay type: binding; details: PD-L1 His 6 nM, PD-1 Fc 6 nM
Sequence of PD-L1 His protein / PD-1 Fc protein (Q9NZQ7 19-238): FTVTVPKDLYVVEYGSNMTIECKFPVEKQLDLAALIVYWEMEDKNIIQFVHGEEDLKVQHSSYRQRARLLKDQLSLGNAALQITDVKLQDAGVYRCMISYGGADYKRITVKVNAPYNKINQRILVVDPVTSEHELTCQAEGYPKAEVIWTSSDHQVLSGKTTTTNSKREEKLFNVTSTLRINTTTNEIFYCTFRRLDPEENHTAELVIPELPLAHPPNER

Sequence of human PD-L1 (Q9NZQ7 19-290): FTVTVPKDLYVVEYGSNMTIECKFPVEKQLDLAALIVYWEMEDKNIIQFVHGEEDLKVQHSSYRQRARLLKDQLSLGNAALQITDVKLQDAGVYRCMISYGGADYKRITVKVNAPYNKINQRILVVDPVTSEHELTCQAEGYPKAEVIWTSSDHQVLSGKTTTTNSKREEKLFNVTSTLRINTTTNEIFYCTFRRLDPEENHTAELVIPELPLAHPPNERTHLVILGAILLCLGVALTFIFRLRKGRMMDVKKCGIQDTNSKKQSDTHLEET

SMILES | EC50 [1] [nM] | IC50 [2] [nM]
COc1cc(-c2nccc(-c3cccc4c3CCC[C@@H]4Nc3nc(OC)c(CN4CC5(CNC(=O)C5)C4)cc3C(F)(F)F)c2Cl)ccc1CNC[C@@H]1CCC(=O)N1 [Example 724, 2-((6-(((S)-5-(3-Chloro-2-(3-methoxy-4-(((((S)-5-oxopyrrolidin-2-yl)methyl)amino)methyl)phenyl)pyridin-4-yl)-1,2,3,4-tetrahydronaphthalen-1-yl)amino)-2-methoxy-5-(trifluoromethyl)pyridin-3-yl)methyl)-2,6-diazaspiro[3.4]octan-7-one] | ≥ 10000 | 585
COc1cc(-c2nccc(-c3cccc(NC(=O)c4ccc(CNCCO)cn4)c3C)c2Cl)ccc1CNC[C@@H]1CCC(=O)N1 [Example 735, (S)—N-(3-(3-Chloro-2-(3-methoxy-4-((((5-oxopyrrolidin-2-yl)methyl)amino)methyl)phenyl)pyridin-4-yl)-2-methylphenyl)-5-(((2-hydroxyethyl)amino)methyl)picolinamide] | 15.6 | 0.03
COc1cc(-c2nccc(-c3cccc(-c4cn5cc(CNC[C@@H]6CCC(=O)N6)nc5cn4)c3Cl)c2Cl)ccc1CNC[C@@H]1CCC(=O)N1 [Example 291, (S)-5-((((6-(2-Chloro-3-(3-chloro-2-(3-methoxy-4-(((((S)-5-oxopyrrolidin-2-yl)methyl)amino)methyl)phenyl)pyridin-4-yl)phenyl)imidazo[1,2-a]pyrazin-2-yl)methyl)amino)methyl)pyrrolidin-2-one] | 376 | 1.41
COc1nc(-c2cccc(-c3ccnc(-c4ccc(CNC5CCN(C(C)=O)CC5)c(OC)n4)c3Cl)c2Cl)ccc1CNC1CCN(C(C)=O)CC1 [Compound 627, 1-(4-(((6-(3-(5′-(((1-Acetylpiperidin-4-yl)amino)methyl)-3-chloro-6′-methoxy-[2,2′-bipyridin]-4-yl)-2-chlorophenyl)-2-methoxypyridin-3-yl)methyl)amino)piperidin-1-yl)ethan-1-one] | 43.4 | 1.96
COc1cc(-c2nccc(-c3cccc(-c4ccc(CNC5CCN(C(C)=O)CC5)c(OC)n4)c3Cl)c2Cl)cnc1CNC1CCN(C(C)=O)CC1 [Compound 375, 1-(4-(((6-(3-(6′-(((1-Acetylpiperidin-4-yl)amino)methyl)-3-chloro-5′-methoxy-[2,3′-bipyridin]-4-yl)-2-chlorophenyl)-2-methoxypyridin-3-yl)methyl)amino)piperidin-1-yl)ethan-1-one] | 46.4 | 1.24
COc1cc(-c2nccc(-c3cccc(-c4ccc(CN5CC6(CNC(=O)C6)C5)c(OC)n4)c3F)c2Cl)ccc1CN1CC2(CNC(=O)C2)C1 [Example 438, 2-(4-(3-chloro-4-(2-fluoro-3-(6-methoxy-5-((7-oxo-2,6-diazaspiro[3.4]octan-2-yl)methyl)pyridin-2-yl)phenyl)pyridin-2-yl)-2-methoxybenzyl)-2,6-diazaspiro[3.4]octan-7-one] | 58.7 | 3.1
COc1nc(-c2cccc(-c3ccnc(-c4ccc5c(CNCC(C)(C)O)cn(C)c5c4)c3Cl)c2Cl)ccc1CNC[C@@H]1CCC(=O)N1 [Compound 36, (S)-5-((((6-(2-chloro-3-(3-chloro-2-(3-(((2-hydroxy-2-methylpropyl)amino)methyl)-1-methyl-1H-indol-6-yl)pyridin-4-yl)phenyl)-2-methoxypyridin-3-yl)methyl)amino)methyl)pyrrolidin-2-one] | 82.1 | 3.4
COc1nc(-c2ccnc(-c3cccc(NC(=O)c4cn(C)c(=O)n(C)c4=O)c3Cl)c2Cl)ccc1CNC1CCN(C(C)=O)CC1 [Compound 721, N-(3-(5-(((1-Acetylpiperidin-4-yl)amino)methyl)-3′-chloro-6-methoxy-[2,4′-bipyridin]-2′-yl)-2-chlorophenyl)-1,3-dimethyl-2,4-dioxo-1,2,3,4-tetrahydropyrimidine-5-carboxamide] | 1320 | 0.7
